Data as given in patent US7915448B2, “Substituted sulfonylaminoarylmethyl cyclopropanecarboxamide as VR1 receptor antagonists” (Pfizer Inc., priority 2005, dated 2011).

Assays:
[1] = target: T1, human VR1 receptors (Homo sapiens, UniProt Q8NER1); assay: Human VR1 antagonist assay (Ca2+ imaging); type: cell-based; conditions: cells expressing human VR1, fura-2 Ca2+ imaging, FDSS 6000; capsaicin (300 nM) or acid (pH5.8) stimulation, table does not say which
T1 construct: host or cells: cells highly expressing human VR1; cell type not specified
T1 sequence (Q8NER1 whole entry): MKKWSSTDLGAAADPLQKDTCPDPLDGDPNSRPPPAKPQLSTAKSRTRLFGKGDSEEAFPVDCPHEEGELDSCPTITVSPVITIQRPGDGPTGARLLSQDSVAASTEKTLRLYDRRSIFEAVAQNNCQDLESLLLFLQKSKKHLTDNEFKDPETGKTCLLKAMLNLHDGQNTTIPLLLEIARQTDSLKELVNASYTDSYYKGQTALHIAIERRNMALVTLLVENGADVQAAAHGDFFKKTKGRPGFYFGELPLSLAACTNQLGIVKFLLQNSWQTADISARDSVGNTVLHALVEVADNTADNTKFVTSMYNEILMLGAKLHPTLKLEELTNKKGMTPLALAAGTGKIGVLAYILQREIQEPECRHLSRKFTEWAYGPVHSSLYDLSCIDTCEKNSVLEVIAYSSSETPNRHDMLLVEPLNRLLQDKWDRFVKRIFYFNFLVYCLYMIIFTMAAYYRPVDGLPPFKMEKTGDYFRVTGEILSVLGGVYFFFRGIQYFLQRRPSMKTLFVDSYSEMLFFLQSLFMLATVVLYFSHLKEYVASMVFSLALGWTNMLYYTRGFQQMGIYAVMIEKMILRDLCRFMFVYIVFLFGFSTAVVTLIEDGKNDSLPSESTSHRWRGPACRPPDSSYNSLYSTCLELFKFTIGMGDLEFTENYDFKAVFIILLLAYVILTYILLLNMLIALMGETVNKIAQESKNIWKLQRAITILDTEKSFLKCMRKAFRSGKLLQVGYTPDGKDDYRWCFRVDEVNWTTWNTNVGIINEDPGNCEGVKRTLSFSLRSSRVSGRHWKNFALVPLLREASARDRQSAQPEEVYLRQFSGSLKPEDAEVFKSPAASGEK
Source text: Human VR1 Antagonist Assay
VR1 antagonistic activity can be determined by the Ca^2+ imaging assay using human VR1 highly expressing cells. The cells that highly express human VR1 receptors are obtainable from several different conventional methods. The one standard method is cloning from human Dorsal Root Ganglion (DRG) or kidney according to the methods such as described in the journal article; Nature, 389, pp 816-824, 1997. Alternatively VR1 receptors highly expressing human keratinocytes are also known and published in the journal article (Biochemical and Biophysical Research Communications, 291, pp 124-129, 2002). […] Further more, the method to up regulate human VR1 gene, which is usually a silent gene or don't produce detectable level of VR1 receptors, is also available to obtain propriety cells. Such genetic modification method was described in detail; Nat. Biotechnol., 19, pp 440-445, 2001.
The cells that express human VR1 receptors were maintained in culture flask at 37° C. in an environment containing 5% CO2 until use in the assay. The intracellular Ca^2+ imaging assay to determine VR1 antagonistic activities were done by following procedures.
The culture medium was removed from the flask and fura-2/AM fluorescent calcium indicator was added to the flask at a concentration of 5 μM in the medium. The flask was placed in CO2 incubator and incubated for 1 hour. Then the cells expressing the human VR1 receptors were detached from the flask follow by washing with phosphate buffer saline, PBS(−) and re-suspended in assay buffer. The 80 μl of aliquot of cell suspension (3.75×10^5 cells/ml) was added to the assay plate and the cells were spun down by centrifuge (950 rpm, 20° C., 3 minutes).
Capsaicin Stimulation Assay:
The capsaicin-induced changes in the intracellular calcium concentration were monitored using FDSS 6000 (Hamamatsu Photonics, Japan), a fluorometric imaging system. The cell suspension in Krebs-Ringer HEPES (KRH) buffer (115 mM NaCl, 5.4 mM KCl, 1 mM MgSO4, 1.8 mM CaCl2, 11 mM D-Glucose, 25 mM HEPES, 0.96 mM Na2HPO4, pH 7.3) were pre-incubated with varying concentrations of the test compounds or KRH buffer (buffer control) for 15 minutes at room temperature under the dark condition. Then capsaicin solution, which gives 300 nM in assay mixture, was automatically added to the assay plate by the FDSS 6000.
The Acid-induced changes in the intracellular calcium concentration were monitored using FDSS 6000 (Hamamatsu Photonics, Japan), a fluorometric imaging system. The cell suspension in resting buffer (HBSS supplemented with 10 mM HEPES, pH 7.4) were pre-incubated with varying concentrations of the test compounds or resting buffer (buffer control) for 15 minutes at room temperature under the dark condition. The cells were automatically added the stimulating solution (HBSS supplemented with MES, final assay buffer pH5.8) by the FDSS 6000.
Determination of Antagonist Activity
The monitoring of the changes in the fluorescence signals (λex=340 nm/380 nm, λem=510-520 nm) was initiated at 1 minute prior to the addition of capsaicin solution or acidic buffer and continued for 5 minute.

[2] = Half-life in Human Liver Microsomes (HLM); conditions: pH 7.4; for half-life at 1 μM: human, human liver microsomes (HL101)
Experimental: Test compounds (1 μM) were incubated with 3.3 mM MgCl2 and 0.78 mg/mL HLM (HL101) in 100 mM potassium phosphate buffer (pH 7.4) at 37° C. on the 96-deep well plate. The reaction mixture was split into two groups, a non-P450 and a P450 group. NADPH was only added to the reaction mixture of the P450 group. An aliquot of samples of P450 group was collected at 0, 10, 30, and 60 min time point, where 0 min time point indicated the time when NADPH was added into the reaction mixture of P450 group. An aliquot of samples of non-P450 group was collected at −10 and 65 min time point. Collected aliquots were extracted with acetonitrile solution containing an internal standard. The precipitated protein was spun down in centrifuge (2000 rpm, 15 min). The compound concentration in supernatant was measured by LC/MS/MS system.
The half-life value was obtained by plotting the natural logarithm of the peak area ratio of compounds/internal standard versus time. The slope of the line of best fit through the points yields the rate of metabolism (k).

SMILES | IC50 [1] [nM] | half-life at 1 μM [2] [min] | T1/2 ([2]; 1 μM compound, 0.78 mg/mL HLM, 37° C., NADPH) [min]
C[C@@H](NC(=O)[C@H]1C[C@@H]1c1ccc(C(C)(C)C(F)(F)F)cc1)c1ccc(NS(C)(=O)=O)c(CO)c1 [Example 48, N-((1R)-1-{3-(Hydroxymethyl)-4-[(methylsulfonyl)amino]phenyl}ethyl)-2-[4-(2,2,2-trifluoro-1,1-dimethylethyl)phenyl]cyclopropanecarboxamide] | 203 | 21 | 
Cc1cc([C@@H](C)NC(=O)C2CC2(C)c2ccc(OC(F)(F)F)cc2)ccc1NS(C)(=O)=O (stereo partly drawn) [Example 16, 2-Methyl-N-((1R)-1-{3-methyl-4-[(methylsulfonyl)amino]phenyl}ethyl)-2-[4-(trifluoromethoxy)phenyl]cyclopropanecarboxamide] | 6.59 | 53 | 
Cc1cc([C@@H](C)NC(=O)[C@H]2C[C@]2(C)c2ccc(C(F)(F)F)cc2)ccc1NS(C)(=O)=O [Example 70, (1S,2S)-2-Methyl-N-((1R)-1-{3-methyl-4-[(methylsulfonyl)amino]phenyl}ethyl)-2-[4-(trifluoromethyl)phenyl]cyclopropanecarboxamide] | 0.83 |  | 38
Cc1cc([C@@H](C)NC(=O)C2CC2(CO)c2ccc(C(C)(C)C)cc2)ccc1NS(C)(=O)=O (stereo partly drawn) [Example 59, 2-[4-tert-Butylphenyl]-2-(hydroxymethyl)-N-((1R)-1-{3-methyl-4-[(methylsulfonyl)amino]phenyl}ethyl)cyclopropanecarboxamide] | 263 | 22 | 
C[C@@H](NC(=O)C1CC1c1ccc(C(C)(C)C)nc1N1CCCCC1)c1ccc(NS(C)(=O)=O)c(F)c1 (stereo partly drawn) [Example 50, 2-(6-tert-Butyl-2-piperidin-1-ylpyridin-3-yl)-N-((1R)-1-{3-fluoro-4-[(methylsulfonyl)amino]phenyl}ethyl)cyclopropanecarboxamide] | 239 | 4 | 
Cc1cc([C@@H](C)NC(=O)C2CC2(C)c2ccc(SC(F)(F)F)cc2)ccc1NS(C)(=O)=O (stereo partly drawn) [Example 24, 2-Methyl-N-((1R)-1-{3-methyl-4-[(methylsulfonyl)amino]phenyl}ethyl)-2-{4-[(trifluoromethyl)thio]phenyl}cyclopropanecarboxamide] | 19.3 | 23 | 
CCc1cc([C@@H](C)NC(=O)C2CC2(C)c2ccc(OC(F)(F)F)cc2)ccc1NS(C)(=O)=O (single isomer, unassigned) [Example 75] | 11.8 | 10 | 
Cc1cc([C@H](C)NC(=O)[C@H]2C[C@]2(C)c2ccc(C(F)(F)F)cc2)ccc1NS(C)(=O)=O (single isomer, unassigned) [Example 82] | 62 | 26 | 
C[C@@H](NC(=O)C1CC1c1ccc(C(F)(F)F)cc1)c1ccc(NS(C)(=O)=O)c(CO)c1 (stereo partly drawn) [Example 20, N-((1R)-1-{3-(Hydroxymethyl)-4-[(methylsulfonyl)amino]phenyl}ethyl)-2-[4-(trifluoromethyl)phenyl]cyclopropanecarboxamide] | 47 | > 120 | 
Cc1cc([C@@H](C)NC(=O)[C@H]2C[C@@H]2c2ccc(C(F)(F)F)nc2N(C)C)c(F)cc1NS(C)(=O)=O [Example 79, 2-[2-(Dimethylamino)-6-(trifluoromethyl)pyridin-3-yl]-N-((1R)-1-{2-fluoro-5-methyl-4-[(methylsulfonyl)amino]phenyl}ethyl)cyclopropanecarboxamide] | 20.5 | 22 | 
Cc1cc([C@@H](C)NC(=O)[C@H]2C[C@]2(C)c2ccc(C(F)(F)F)c(F)c2)c(F)cc1NS(C)(=O)=O [Example 42, N-((1R)-1-{2-Fluoro-5-methyl-4-[(methylsulfonyl)amino]phenyl}ethyl)-2-[3-fluoro-4-(trifluoromethyl)phenyl]-2-methylcyclopropanecarboxamide] | 0.713 | 19.7 | 
Cc1nc([C@@H](C)NC(=O)C2CC2c2ccc(C(F)(F)F)cc2)ccc1NS(C)(=O)=O (single isomer, unassigned) [Example 56] | 1250 | > 120 | 
Cc1cc([C@@H](C)NC(=O)[C@H]2C[C@]2(C)c2ccc(C(F)(F)F)cc2)ccc1NS(C)(=O)=O [Example 15, (1S,2S)-2-Methyl-N-((1R)-1-{3-methyl-4-[(methylsulfonyl)amino]phenyl}ethyl)-2-[4-(trifluoromethyl)phenyl]cyclopropanecarboxamide] | 0.71 | 38 | 
Cc1cc([C@@H](C)NC(=O)C2CC2c2ccc(C(F)(F)F)cc2)ccc1NS(C)(=O)=O (stereo partly drawn) [Example 19a, N-((1R)-1-{3-Methyl-4-[(methylsulfonyl)amino]phenyl}ethyl)-2-[4-(trifluoromethyl)phenyl]cyclopropanecarboxamide] | 23 | > 120 | 

The remaining compounds from weak to strong by IC50 [1], led by results:

IC50 [1] [nM] | half-life at 1 μM [2] [min] | T1/2 ([2]; 1 μM compound, 0.78 mg/mL HLM, 37° C., NADPH) [min] | SMILES
282 | 119 |  | C[C@@H](NC(=O)C1CC1c1ccc(C(C)(C)C(F)(F)F)cc1)c1ccc(NS(C)(=O)=O)c(F)c1 (stereo partly drawn) [Example 18, N-((1R)-1-{3-Fluoro-4-[(methylsulfonyl)amino]phenyl}ethyl)-2-[4-(2,2,2-trifluoro-1,1-dimethylethyl)phenyl]cyclopropanecarboxamide]
38 | 37 |  | C[C@@H](NC(=O)C1CC1c1ccc(C(C)(C)C)cc1)c1ccc(NS(C)(=O)=O)c(F)c1 (stereo partly drawn) [Example 8, 2-(4-tert-Butylphenyl)-N-((1R)-1-{3-fluoro-4-[(methylsulfonyl)amino]phenyl}ethyl)cyclopropanecarboxamide]
27 | 83 |  | Cc1cc([C@@H](C)NC(=O)C2CC2(C)c2ccc(C(F)(F)F)nc2)ccc1NS(C)(=O)=O (stereo partly drawn) [Example 12, 2-Methyl-N-((1R)-1-{3-methyl-4-[(methylsulfonyl)amino]phenyl}ethyl)-2-[6-(trifluoromethyl)pyridin-3-yl]cyclopropanecarboxamide]
24.5 | 3 |  | Cc1cc([C@@H](C)NC(=O)[C@H]2C[C@]2(C)c2ccc(C(F)(F)F)nc2N2CCOCC2)ccc1NS(C)(=O)=O [Example 84, 2-Methyl-N-((1R)-1-{3-methyl-4-[(methylsulfonyl)amino]phenyl}ethyl)-2-[2-morpholin-4-yl-6-(trifluoromethyl)pyridin-3-yl]cyclopropanecarboxamide]
20.1 | > 120 |  | C[C@@H](NC(=O)[C@H]1C[C@]1(C)c1ccc(C(F)(F)F)cc1)c1ccc(NS(C)(=O)=O)cc1 [Example 21, (1S,2S)-2-Methyl-N-((1R)-1-{4-[(methylsulfonyl)amino]phenyl}ethyl)-2-[4-(trifluoromethyl)phenyl]cyclopropanecarboxamide]
7.64 | 11 |  | C[C@@H](NC(=O)[C@H]1C[C@@H]1c1ccc(C(F)(F)F)nc1N1CCCC1)c1ccc(NS(C)(=O)=O)c(CO)c1 [Example 47, N-((1R)-1-{3-(Hydroxymethyl)-4-[(methylsulfonyl)amino]phenyl}ethyl)-2-[2-pyrrolidin-1-yl-6-(trifluoromethyl)pyridin-3-yl]cyclopropanecarboxamide]
4.72 | > 120 |  | CC[C@@H](NC(=O)[C@H]1C[C@]1(C)c1ccc(C(F)(F)F)cc1)c1ccc(NS(C)(=O)=O)c(C)c1 [Example 34, (1S,2S)-2-Methyl-N-((1R)-1-{3-methyl-4-[(methylsulfonyl)amino]phenyl}propyl)-2-[4-(trifluoromethyl)phenyl]cyclopropanecarboxamide]
